Measurements published in US20080108661A1, “Medicaments” (AstraZeneca AB, priority 2006, published 2008).

What was measured:
[1] = target: T1, CCR3 (Homo sapiens, UniProt P51677); assay: Chemokine (CCR3 ligand) stimulation of human OA cartilage explant, gene expression (low density array Q-PCR); type: cell-based
T1 construct: Human osteoarthritic cartilage is obtained during total knee replacement surgery; from tissue; host or cells: human osteoarthritic knee articular cartilage explants (femoral condyles and tibial plateau)
T1 sequence (P51677 1-355): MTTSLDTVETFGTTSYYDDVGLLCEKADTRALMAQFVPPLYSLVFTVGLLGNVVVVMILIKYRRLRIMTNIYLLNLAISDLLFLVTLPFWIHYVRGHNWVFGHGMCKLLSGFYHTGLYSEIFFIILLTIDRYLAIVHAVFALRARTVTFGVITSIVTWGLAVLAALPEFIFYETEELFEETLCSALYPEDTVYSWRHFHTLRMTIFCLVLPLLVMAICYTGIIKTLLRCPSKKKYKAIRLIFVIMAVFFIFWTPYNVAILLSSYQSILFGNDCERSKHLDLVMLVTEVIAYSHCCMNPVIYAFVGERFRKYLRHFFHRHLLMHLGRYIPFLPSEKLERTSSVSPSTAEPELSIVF
Excerpt: (ii) Chemokine Stimulation of Human Cartilage Explant
Human osteoarthritic cartilage is obtained during total knee replacement surgery. Full-depth cartilage slices are obtained from both the femoral condyles and the tibial plateau and explant discs removed using a 5 mm diameter KAI sterile dermal biopsy punch. After dissection, the explants are all pooled in a Petri dish. For each condition, sixteen explants are randomly taken from the Petri dish and cultured in polypropylene 96-well plates with phenol red free Dulbecco's Modified Eagle Medium (DMEM; Gibco, Grand Island, N.Y.), 150 μg/ml gentamicin, 1.5 μg/ml fungizone and 100 units/ml penicillin, 100 μg/ml streptomycin and L-Glutamine.
After an initial 48 hour pre-stimulation, rest period, experimental reagents are added for 24, 48 or 96 hours. Explants are incubated with the appropriate concentration of compound alone, or DMSO as a control, for 20 minutes prior to addition of the chemokine. Cartilage is subsequently treated with either vehicle control (plus DMSO); chemokine (at 30-300 ng/ml) plus DMSO; or chemokine (30 ng/ml) plus the compound of Example 1. Conditioned media are collected 24, 48 or 96 hours post stimulation and stored at −20° C. prior to analysis. Cartilage explants are also collected and snap frozen in liquid nitrogen, prior to RNA extraction.
Extraction of RNA from Cartilage Explants
Each condition is composed of sixteen cartilage explant discs, which are pooled prior to snap freezing in liquid nitrogen. These pooled samples are ground to a fine powder under liquid nitrogen then resuspended in 10 ml trizol in polypropylene Oakridge tubes, and RNA extracted according to the manufacturer's protocol. The RNA pellet is resuspended in approx 500 μl RNAse and DNAse free water and then combined with 1.75 ml Qiagen RLT. RNA is further purified with Qiagen RNEasy mini columns (Qiagen Cat# 74104), as described in the manufacturer's protocol, including on column DNA digestion. The RNA obtained by these procedures is analysed using Agilent bioanalyser technology, according to the manufacturer's instructions, to determine the quantity and quality.
Gene Expression Analysis: the 96 and 48 Gene Fingerprints Using Low Density Arrays (Q-PCR)
Low-density gene arrays [quantitative polymerise chain reaction (Q-PCR) method] with either 96 or 48 genes pertinent to OA (as identified by Affymetrix microarray analysis of OA articular cartilage) are used to assess the effects of treating human diseased cartilage explants with the chemokines eotaxin-2 or RANTES, alone or in combination with the compound of Example 1. Gene expression changes were reported as fold change normalised against a standard non-affected gene: GAPDH.

[2] = tested on: human articular chondrocytes (HAC)
Description: (i) Isolation of Human Articular Chondrocytes (HAC) from OA Cartilage for Histamine stimulation. HAC are isolated from cartilage from osteoarthritic tissues removed at joint replacement. Cartilage is incubated overnight in 2 mg/ml collagenase in DMEM+10% FCS+PSG at 37° C., with shaking. The resulting cell suspension is filtered to remove undigested cartilage and the cells are centrifuged at 1200 rpm for 10 minutes. Cells are resuspended in DMEM plus 10% FCS PSG/NEAA/fungizone/gentamycin, plated at approx 5×10^−6 in a T-75 and grown to confluence. Cells are subsequently plated at approx 10,000 cells per well into 96 well plates for stimulation with histamine. Triplicate wells of first passage HAC are treated with either DMEM (10% or 0% FCS) alone (control), or DMEM (10% or 0% FCS) plus histamine (dose range 10 nM up to 1 mM). Cells are incubated at 37° C. for 24 hours, the conditioned medium harvested, and assayed for PGE2, MMP or cytokine production by enzyme linked immunosorbent assay (ELISA). […] For some experiments cells are incubated with specific antagonists for 20 minutes prior to, and in combination with, histamine stimulation.

[3] = tested on: human articular chondrocytes (HAC); remark: listed apart in the source
[4] = tested on: murine articular knee joint; conditions: intra-articular histamine injection, mice
Excerpt: (§1) (iii) In Vivo Functional Validation of Histamine-Induced Responses Murine Articular Knee Joint
(§2) It is hypothesised that histamine released by trafficking mast cells or by the de novo synthesis of histamine by articular chondrocytes induces a H1-dependant increase in COX-2 mRNA expression and elevated PGE2 synthesis in synovial fibroblasts and articular chondrocytes. To evaluate the role of histamine in pathological processes in the joint, a pharmacodynamic mouse model was developed to investigate the effect of intra-articular injection (IAI) of histamine on joint swelling using calliper measurements, and measuring PGE2 and/or 11-6 levels from synovial knee joint ravages.
(§3) Adult C57B16 mice were dosed with either vehicle or test compound 1 hour prior to intra-articular injection of histamine (5 μmol). Swelling was induced by injection of 6 μl of histamine/saline suspension into the knee joint cavity under inhalation anaesthesia with isoflurane. Joint swelling was quantified by calliper measurements taken at 1, 6, 12, 24, 36 and 48 hr. Terminal synovial fluid knee lavages were sampled and levels of the inflammatory mediator I1-6 were measured in the fluid from synovial knee joint ravages.

[5] = tested on: murine articular knee joint; assay: Histamine-induced joint oedema, murine articular knee joint (calliper measurements); type: in vivo, mouse
Excerpt: as §1, §2, §3

[6] = Eotaxin 2 stimulation, donor 014—04

O=C(NC[C@@H](O)CN1CCC(Oc2ccc(Cl)c(Cl)c2)CC1)c1sc(=O)[nH]c1C(F)(F)F [Example 1, N-{(2R)-3-[4-(3,4-Dichlorophenoxy)piperidin-1-yl]-2-hydroxypropyl}-2,3-dihydro-2-oxo-4-(trifluoromethyl)-5-thiazolecarboxamide benzenesulfonate Form A]
inhibition of CCR3 ligand-induced increase in ADAMTS4, MMP13, IL-6, IL-8 and MMP2 mRNA expression ([1]; at 3×pA2, n=3 (FIG. 3)): inhibited

O=C(O)COCCN1CCN(C(c2ccccc2)c2ccc(Cl)cc2)CC1 (stereo not shown) [cetirizine]
inhibition of histamine-induced PGE2 release ([2]; 100 nM (FIG. 2)): inhibited | inhibition of histamine-induced increase in Cox2 mRNA expression ([3]; 100 nM): inhibited

NCCc1c[nH]cn1 [histamine, 2-(4-imidazolyl)-ethylamine]
release of PGE2 ([2]; histamine stimulation, n=6 (FIG. 2)): dose dependent increase | increase in release of IL-6 into the synovial fluid [4]: > 60% | Cox2 mRNA expression levels ([3]; histamine stimulation): increase | increase in joint oedema compared to vehicle control animals ([5]; intra-articular injection of histamine (5 μmol), C57B16 mice): 5 fold

Clc1ccc2c(c1)CCc1cccnc1C2=C1CCNCC1 [desloratadine]
histamine-induced joint swelling under treatment ([5]; 5.1 mg/kg, dosed 1 hour prior to intra-articular histamine): almost completely ablated

B1: Eotaxin 2: the CCR3 ligand, a chemokine used to stimulate cartilage explants (protein, UniProt O00175 27-119, looked up)
C-C motif chemokine 24: VVIPSPCCMFFVSKRIPENRVVSYQLSSRSTCLKAGVIFTTKKGQQFCGDPKQEWVQRYMKNLDAKQKKASPRARAVAVKGPVQRYPGNQTTC
increased expression of IL-6 [1, 6]: 14 fold | increased expression of IL-8 [1, 6]: 11 fold | elevation of periostin expression ([1]; donor 014—04): 2 fold | enhanced expression of ADAMTS4 ([1]; donor 014—04): 3.6 fold | enhanced expression of ADAMTS 5 ([1]; donor 014—04): 6 fold
